Experimental data taken from patent publication US8748445B2, “Methods for treating glioma” (The UAB Research Foundation, priority 2004, dated 2014).
“Also recorded” adds a separate entry of the source.

Tests used:
[1] = system: glioma cell lines (D-54MG, U-87MG, U-251MG and STTG1) and a primary glioma culture (GBM62); experiment: growth curves of glioma cells over 5 days; type: cell-based, human
Method: To examine whether the depletion of glutathione via inhibition of cystine uptake by system Xc affects the growth of glioma cells, growth curves for 4 glioma cell lines (D-54MG, U-87MG, U-251MG and STTG1) and a primary glioma culture (GBM62) were established.
In the presence of 0.25 mM (S)-4-CPG, growth of D-54MG cells indeed recovered by the addition of fourfold excess of cystine (FIG. 3E), but not with glutamate (FIG. 3D), the second substrate for system Xc.

D-54MG glioma cells [2] = experiment: BrdU incorporation, ELISA-based assay; type: cell-based, human
Method: (§1) BrdU incorporation was measured using an ELISA-based assay. D-54MG cells were grown in the presence or absence of inhibitors for 24 hours and pulsed for 2 hours with BrdU. The cells were cultured for an additional 48 hours and the amount of incorporated BrdU was measured using alkaline phosphatase conjugated to anti-BrdU antibodies. […] The inhibition of DNA synthesis was also seen in immunocytochemical studies.

glioma cells [3] = experiment: cell death by flow cytometry using the Live/Dead assay kit; type: cell-based, human
Method: (§2) Because an accumulation of ROS can lead to apoptotic cell death, the ability of system Xc inhibitors to induce apoptosis in glioma cells was examined. […] Often apoptosis is dependent on caspase activities, so it was determined whether the system Xc inhibitors induce activated caspase-3, which is the convergent enzyme in the caspase-dependent signaling cascade. […] With 1 mM sulfasalazine, 90% of cells died over the 5 d incubation (FIG. 5E).

glioma cells [4] = experiment: total intracellular glutathione content in glioma cells; type: cell-based, human
Method: To determine if limiting cystine uptake via system Xc reduces the total intracellular glutathione content (GSH and glutathione disulfide), intracellular glutathione concentrations were determined in the presence and absence of sulfasalazine.

system Xc = target: T1, system Xc (Homo sapiens, UniProt Q9UPY5); experiment: 35S-labeled cystine uptake in glioma lines and primary glioma culture; type: cell-based; settings: 5 mM L glutamate; data not shown
T1 construct: reduced ^35S-labeled cystine uptake by 60-80% in glioma lines (d-54MG, U-87MG and U-251MG) and a primary glioma culture (GBM62); endogenous in cells; host or cells: human glioma cell lines D-54MG, U-87MG, U-251MG and primary glioma culture GBM62
T1 sequence (Q9UPY5 1-501): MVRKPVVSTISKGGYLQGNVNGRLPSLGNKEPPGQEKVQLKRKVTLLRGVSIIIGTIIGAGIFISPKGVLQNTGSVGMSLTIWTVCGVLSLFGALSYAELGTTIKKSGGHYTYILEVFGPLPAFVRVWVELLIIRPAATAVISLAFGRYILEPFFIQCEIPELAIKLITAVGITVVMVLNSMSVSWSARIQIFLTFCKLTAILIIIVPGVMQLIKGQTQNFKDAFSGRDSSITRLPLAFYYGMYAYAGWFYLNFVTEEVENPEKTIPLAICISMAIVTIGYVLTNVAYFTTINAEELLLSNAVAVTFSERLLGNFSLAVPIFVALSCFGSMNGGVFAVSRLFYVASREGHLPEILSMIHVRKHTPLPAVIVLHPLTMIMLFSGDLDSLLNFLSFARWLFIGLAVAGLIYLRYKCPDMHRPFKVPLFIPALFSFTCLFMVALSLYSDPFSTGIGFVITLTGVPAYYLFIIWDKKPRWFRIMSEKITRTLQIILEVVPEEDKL
T1 sequence (P08195 1-529 partner): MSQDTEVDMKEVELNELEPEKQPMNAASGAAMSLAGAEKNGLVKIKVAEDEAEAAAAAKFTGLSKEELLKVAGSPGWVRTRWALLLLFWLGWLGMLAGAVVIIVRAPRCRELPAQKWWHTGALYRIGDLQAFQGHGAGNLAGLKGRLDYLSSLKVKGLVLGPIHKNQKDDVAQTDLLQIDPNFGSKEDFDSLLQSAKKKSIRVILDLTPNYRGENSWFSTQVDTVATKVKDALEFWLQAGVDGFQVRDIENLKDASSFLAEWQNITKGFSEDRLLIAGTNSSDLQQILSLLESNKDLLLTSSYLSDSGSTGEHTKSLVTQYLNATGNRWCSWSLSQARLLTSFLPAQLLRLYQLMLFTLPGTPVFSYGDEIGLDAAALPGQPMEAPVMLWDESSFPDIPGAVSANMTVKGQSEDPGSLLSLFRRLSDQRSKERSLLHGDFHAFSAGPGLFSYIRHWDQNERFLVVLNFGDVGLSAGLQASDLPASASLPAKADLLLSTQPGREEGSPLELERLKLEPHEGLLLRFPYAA
From the text: System Xc is a glutamate-cystine exchanger and can therefore be inhibited if the outward directed gradient for glutamate is eliminated by exposure to high concentrations of extracellular glutamate. The principal hypothesis in this study is that system Xc serves as a pipeline for cellular cystine uptake, with glutamate release being an obligatory by-product. Cystine uptake is the rate-limiting step for the synthesis of GSH, which is the main intracellular antioxidant that protects cells from oxidative stress and resulting reactive oxygen species (ROS) (Jefferies et al., 2003).

glioma cells [5] = experiment: rescue from (S)-4-CPG-induced cell death by caspase inhibitor; type: cell-based, human; settings: Boc-D-FMK 100 μM; (S)-4-CPG 0.25 mM (FIG. 5D)
Method: Because an accumulation of ROS can lead to apoptotic cell death, the ability of system Xc inhibitors to induce apoptosis in glioma cells was examined. Exposure of D-54MG glioma cells to 1 mM (S)-4-CPG for 3 days caused 17% of the cell population to be positive for chromosomal DNA fragmentation, a classic manifestation of apoptosis (FIG. 5B). Often apoptosis is dependent on caspase activities, so it was determined whether the system Xc inhibitors induce activated caspase-3, which is the convergent enzyme in the caspase-dependent signaling cascade. […] In the continued presence of 0.5 mM (S)-4-CPG over a 5 d period, 60% of glioma cells died (FIG. 5E). With 1 mM sulfasalazine, 90% of cells died over the 5 d incubation (FIG. 5E).

[6] = system: primary astrocyte cultures; experiment: growth of primary astrocyte cultures; type: cell-based; settings: (S)-4-CPG 0.25 mM and 0.5 mM (FIG. 3C); sulfasalazine data not shown
D-54MG glioma cells [7] = experiment: BrdU incorporation, immunocytochemical studies; type: cell-based, human; settings: DAPI co-staining (FIG. 4B)
Method: as §1

[8] = system: cortical neuronal cultures; experiment: survival of cortical neuronal cultures; type: cell-based; settings: (S)-4-CPG 0.25 mM and 0.5 mM (FIG. 3C); sulfasalazine data not shown
glioma cells [9] = experiment: cell cycle: total DNA content by flow cytometry (propidium iodide); type: cell-based, human; settings: 0.5 mM (FIG. 4D)
Method: To test whether inhibition of cystine uptake affects a specific stage of the cell cycle, changes in total DNA content were measured using flow cytometry following treatment with 0.5 mM (S)-4-CPG and 0.5 mM sulfasalazine. Cells were fixed with para-formaldehyde and stained with the nuclear marker propidium iodide after incubation with drugs.

D-54MG glioma cells [10] = experiment: chromosomal DNA fragmentation (apoptosis) by flow cytometry; type: cell-based, human; settings: 1 mM for 3 days; D-54MG (FIG. 5B)
Method: as §2

caspase-3 = experiment: activated caspase-3 by Western blot analysis; type: cell-based, human; settings: 0.5 mM; D-54MG cells (FIG. 5C)
Method: as §2

Molecule: N[C@@H](CSSC[C@H](N)C(=O)O)C(=O)O [cystine]
- growth of D-54MG cells in the presence of (S)-4-CPG ([1]; 0.25 mM (S)-4-CPG plus fourfold excess of cystine (FIG. 3E)): recovered
- reversal of inhibition of BrdU incorporation by exogenous cystine (D-54MG glioma cells [2]; inhibition caused by 0.5 mM (S)-4-CPG and 0.5 mM sulfasalazine (FIG. 4C)): able to reverse the inhibition of BrdU incorporation
- prevention of cell death induced by (S)-4-CPG (glioma cells [3]; 0.5 mM (S)-4-CPG with 1 mM cystine (FIG. 5E)): completely prevented

Molecule: CCOC(=O)CNC(=O)[C@H](CS)NC(=O)CC[C@H](N)C(=O)O [glutathione ethyl ester]
- D-54MG glioma cell growth on coincubation ([1]; after treatment with 0.4 mM sulfasalazine or (S)-4-CPG, GSHest 1 mM): completely restored D-54MG glioma cell growth
- intracellular glutathione levels on coincubation (glioma cells [4]; sulfasalazine (0.4 mM) treated D-54MG glioma cells (FIG. 6A)): replenished intracellular glutathione levels

Molecule: N[C@@H](CCC(=O)O)C(=O)O [glutamate]
- competitive inhibition of cystine uptake compared with both drugs (system Xc): comparable
- reversal of growth inhibition by (S)-4-CPG ([1]; 1 mM glutamate with 0.25 mM (S)-4-CPG (FIG. 3D)): failed to overcome the inhibitory effect
- restoration of intracellular glutathione levels (glioma cells [4]; L-glutamate with system Xc inhibitor (FIG. 3D)): failed to restore intracellular glutathione levels

Molecule: COC(=O)CC(NC(=O)OC(C)(C)C)C(=O)CF [Boc-D-FMK, Boc Asp-fluoromethylketone]
- rescue from cell death induced by (S)-4-CPG (glioma cells [5]): a significant percentage of cells were rescued from cell death

Molecule: vitamin E
- growth of D-54MG glioma cells with free radical scavenger ([1]; in the presence of (S)-4-CPG (FIG. 5A)): partially restored

Molecule: N[C@H](C(=O)O)c1ccc(C(=O)O)cc1 [(S)-4-CPG, (S)-4-carboxyphenylglycine]
- growth of primary astrocyte cultures [6]: negligible impact; also recorded: Neither (S)-4-CPG (FIG. 3C) nor sulfasalazine (data not shown) affected
- incorporation of BrdU, immunocytochemistry (D-54MG glioma cells [7]): virtually abolished incorporation of BrdU
- growth of glioma cells ([1]; 5 days, 0.1 and 0.25 mM (S)-4-CPG, 0.25 and 0.5 mM sulfasalazine, all glioma cell lines and GBM62 (FIGS. 3A, 3B)): dose-dependent growth inhibitions
- survival/growth of cortical neuronal cultures [8]: negligible impact; also recorded: Neither (S)-4-CPG (FIG. 3C) nor sulfasalazine (data not shown) affected
- cell cycle distribution (total DNA content) (glioma cells [9]): a reduction of cells in G2 phase and an increase in cells in S phase
- intracellular glutathione concentration (glioma cells [4]; 0.25 mM, glioma cells D-54MG, U-87MG, U-251MG and primary glioma culture GBM64 (FIG. 2F)): depleted intracellular glutathione concentration
- reduction of incorporation of BrdU into chromosomal DNA (D-54MG glioma cells [2]; 0.25 mM, within 48 hours, D-54MG (FIG. 4A)): 50%
- reduction of BrdU incorporation relative to 0.25 mM (D-54MG glioma cells [2]; 0.5 mM, D-54MG (FIG. 4A)): somewhat larger reduction
- glioma cells died (glioma cells [3]; 0.5 mM, continued presence over a 5 d period (FIG. 5E)): 60%
- cell population positive for chromosomal DNA fragmentation (D-54MG glioma cells [10]): 17%
- activated form of caspase-3 (caspase-3): increased the activated form of caspase-3
